Patent US6174858A, “Conjugates useful in the treatment of prostate cancer” (Merck & Co., Inc., priority 1998, dated 2001)
Read-outs that look alike come from different tables or passages of the source.

Assays:
[1] = test system: Colo320DM cells; experiment: In vitro cytotoxicity, Alamar Blue assay, Colo320DM control cell line (does not express free PSA); type: cell-based
Description: (§1) In vitro Assay of Cytotoxicity of Peptidyl Derivatives of Vinca Drugs
(§2) The cytotoxicities of the cleaveable oligopeptide-vinca drug conjugates, prepared as described in Example 3, against a line of cells which is known to be killed by unmodified vinca drug was assessed with an Alamar Blue assay. Specifically, cell cultures of LNCap prostate tumor cells, Colo32ODM cells (designated C320) or T47D cells in 96 well plates was diluted with medium containing various concentrations of a given conjugate (final plate well volume of 200 μl). […] The cells were incubated for 3 days at 37° C., 20 μl of Alamar Blue is added to the assay well. The cells were further incubated and the assay plates were read on a EL-310 ELISA reader at the dual wavelengths of 570 and 600 nm at 4 and 7 hours after addition of Alamar Blue. Relative percentage viability at the various concentration of conjugate tested was then calculated versus control (no conjugate) cultures and an EC50 was determined. Unless otherwise indicated, the acetate salt of the conjugate was tested.

[2] = test system: LNCaP prostate tumor cells; experiment: In vitro cytotoxicity, Alamar Blue assay, LNCaP cell kill; type: cell-based
Description: as §1
as §2, with “Specifically,” for “The cytotoxicities of the cleaveable oligopeptide-vinca drug conjugates, prepared as described in Example 3, against a line of cells which is known to be killed by unmodified vinca drug was assessed with an Alamar Blue assay. Specifically,”

[3] = biological target: T1, free PSA (York PSA) (Homo sapiens, UniProt P07288); experiment: Recognition of oligopeptide-vinca drug conjugates by free PSA (time to 50% cleavage, HPLC); type: biochemical; conditions: for Time to 50% Substrate Cleavage by York PSA: conjugate to PSA molar ratio 100 to 1, pH 7.4
T1 construct: purchased York ('York PSA')
Description: The reaction was quenched after various reaction times by the addition of trifluoroacetic acid (TFA) to a final 1% (volume/volume). Alternatively the reaction is quenched with 10 mM ZnCl2. The quenched reaction was analyzed by HPLC on a reversed-phase C18 column using an aqueous 0.1%TFA/acetonitrile gradient. The amount of time (in minutes) required for 50% cleavage of the noted oligopeptide-cytotoxic agent conjugates with enzymatically active free PSA were then calculated.

[4] = 72 HRS, read-out: Colo320DM EC 50
[5] = 72 HRS, read-out: LNCaP Cell Kill in 72 HRS. {48 HRS} EC 50
[6] = 72 HRS, second part of Table 2, read-out: Colo320DM EC 50
[7] = 72 HRS, second part of Table 2, read-out: LNCaP Cell Kill in 72 HRS. {48 HRS} EC 50

T1 sequence (P07288 25-261): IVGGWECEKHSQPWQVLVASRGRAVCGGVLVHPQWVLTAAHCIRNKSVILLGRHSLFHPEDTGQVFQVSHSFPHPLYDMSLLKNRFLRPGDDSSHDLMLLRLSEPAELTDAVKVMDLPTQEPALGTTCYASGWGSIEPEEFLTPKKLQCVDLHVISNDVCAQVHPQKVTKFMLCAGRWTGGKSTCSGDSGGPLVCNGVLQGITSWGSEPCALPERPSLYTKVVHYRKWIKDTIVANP

Molecule: 4-O-((2-OH)Ac-Abu-SSChgQ-S-P)-dAc-VIN: peptide-vinca drug conjugate, SEQ ID NO 91 (XSSXQSP; N-hydroxyacetyl; desacetylvinblastine conjugate)
- EC50 [1, 4]: 52.5 µM
- EC50 [2, 5]: 11.9 µM
- Time to 50% Substrate Cleavage by York PSA [3]: 110 min

Molecule: 4-O-(Ac-3-Pal-SSChgQS-P)-dAc-VIN: peptide-vinca drug conjugate, SEQ ID NO 92
- EC50 [1, 4]: 8 µM
- EC50 [2, 5]: 5.8 µM
- Time to 50% Substrate Cleavage by York PSA [3]: 80 min

Molecule: 4-O-(Ac-4-trans-L-HypSSChgQ-S-P)-dAc-VIN: peptide-vinca drug conjugate, SEQ ID NO 96 (XSSXQSP; N-acetyl; desacetylvinblastine conjugate)
- EC50 [1, 4]: 83.9 µM
- EC50 ([1]; in 5% FBS, read-out: Colo320DM EC 50 in 5% FBS): 26 µM
- EC50 [2, 5]: 47.9 µM
- EC50 ([2]; in 5% FBS, read-out: LNCaP Cell Kill EC 50 in 5% FBS): > 16 µM
- Substrate cleavage by York PSA after 1 HOUR [3]: 8%

Molecule: 4-O-(Ac-4-trans-L-HypSSChgQ-SS-4-trans-L-Hyp)-dAc-VIN: peptide-vinca drug conjugate, SEQ ID NO 95 (XSSXQSSX; N-acetyl; desacetylvinblastine conjugate)
- EC50 [1, 4]: 13.1 µM
- EC50 [2, 5]: 16.3 µM
- Time to 50% Substrate Cleavage by York PSA [3]: 13 min

Molecule: 4-O-(Ac-4-trans-L-HypSSChgQSS-(d)-Pro)-(dAc)-VIN: peptide-vinca drug conjugate, SEQ ID NO 87 (XSSXQSSP; N-acetyl; D-Pro; desacetylvinblastine conjugate)
- EC50 [1, 4]: 8.1 µM
- EC50 [2, 5]: 4.1 µM
- Substrate cleavage by York PSA after 1 HOUR [3]: 34%

Molecule: 4-O-(Ac-4-trans-L-HypSSChgQSS-Sar)-(dAc)-VIN: peptide-vinca drug conjugate, printed under SEQ ID NO 86 and 105 (XSSXQSSG; N-acetyl; desacetylvinblastine conjugate)
- EC50 [1, 4]: 13 µM
- EC50 [1, 6]: 12 µM
- EC50 [2, 5]: 4.1 µM
- EC50 [2, 7]: 12 µM
- Time to 50% Substrate Cleavage by York PSA [3]: 32 min
- Time to 50% Substrate Cleavage by York PSA ([3]; listed as Ac-4-trans-L-HypSSChgQSS-(4-O-Sar)-(dAc)-VIN): 15 min

Molecule: 4-O-(Ac-4-trans-L-HypSSChgQSV-glycolyl)-VIN: peptide-vinca drug conjugate, SEQ ID NO 88 (XSSXQSV; N-acetyl; glycolyl linker; vinblastine conjugate)
- EC50 [1, 4]: 8.1 µM
- EC50 [2, 5]: 4.1 µM
- Time to 50% Substrate Cleavage by York PSA [3]: 8 min

Molecule: 4-O-(Ac-4-trans-L-HypSSChgQSV-lactyl)-dAc-VIN: peptide-vinca drug conjugate, SEQ ID NO 94
- EC50 [1, 4]: 8.1 µM
- EC50 [2, 5]: 3.1 µM
- Remark printed with the cleavage time (stability of conjugate / fate of product) ([3]; PSA digestion): stable
- Time to 50% Substrate Cleavage by York PSA [3]: 7 min

Molecule: 4-O-(Ac-Abu-SSChgQ-SP)-dAc-VIN: peptide-vinca drug conjugate, SEQ ID NO 90 (XSSXQSP; N-acetyl; desacetylvinblastine conjugate)
- EC50 [1, 4]: 14.5 µM
- EC50 ([1]; in 0.5% FBS, read-out: Colo320DM EC 50 in 0.5% FBS): 23.8 µM
- EC50 [2, 5]: 9.7 µM
- EC50 ([2]; in 0.5% FBS, read-out: LNCaP Cell Kill EC 50 in 0.5% FBS): > 5 µM
- Time to 50% Substrate Cleavage by York PSA [3]: 80 min

Molecule: 4-O-(Ac-SChgQ-SSP)-dAc-VIN: peptide-vinca drug conjugate, SEQ ID NO 116 (XXQSSP; N-acetyl; desacetylvinblastine conjugate)
- EC50 [1, 6]: 20 µM
- EC50 [2, 7]: 15 µM
- Time to 50% Substrate Cleavage by York PSA [3]: 15 min

Molecule: CCC(N)C(=O)OC1C2(CC)C=CCN3CCC4(c5cc(C6(C(=O)OC)CC7CN(CCc8c6[nH]c6ccccc86)CC(O)(CC)C7)c(OC)cc5N(C)C4C1(O)C(=O)OC)C32 (racemic) [4-O-Abu-(dAc)-VIN, racemic mixture]
- EC50 [1, 6]: 5.5 µM
- EC50 [2, 7]: 3.8 µM

Molecule: CCC1(O)CC2CN(CCc3c([nH]c4ccccc34)C(C(=O)OC)(c3cc4c(cc3OC)N(C)C3C(O)(C(=O)OC)C(OC(=O)C5CCCN5C(=O)C(N)CO)C5(CC)C=CCN6CCC43C65)C2)C1 (stereo not shown) [4-O-(SP)-dAc-VIN]
- EC50 [1, 6]: 0.3 µM
- EC50 [2, 7]: 0.1 µM

Molecule: CCC1(O)CC2CN(CCc3c([nH]c4ccccc34)C(C(=O)OC)(c3cc4c(cc3OC)N(C)C3C(O)(C(=O)OC)C(OC(=O)C5CCCN5C(=O)C(CO)NC(=O)C(N)CO)C5(CC)C=CCN6CCC43C65)C2)C1 (stereo not shown) [4-O-(SSP)-dAc-VIN]
- EC50 [1, 6]: 14.5 µM
- EC50 [2, 7]: 2 µM

Molecule: CCC1(O)CC2CN(CCc3c([nH]c4ccccc34)C(C(=O)OC)(c3cc4c(cc3OC)N(C)C3C(O)(C(=O)OC)C(OC(=O)C5CCCN5)C5(CC)C=CCN6CCC43C65)C2)C1 (stereo not shown) [4-O-(d)-prolyl-(dAc)-VIN ester]
- EC50 [1, 6]: 4.1 µM
- EC50 [2, 7]: 2 µM

Molecule: CCC1(O)CC2CN(CCc3c([nH]c4ccccc34)C(C(=O)OC)(c3cc4c(cc3OC)N(C)C3C(O)(C(=O)OC)C(OC(=O)C5CCCN5)C5(CC)C=CCN6CCC43C65)C2)C1 (stereo not shown) [4-O-(prolyl)-dAc-VIN, 4-des- Acetylvinblastine 4-O-(Prolyl) ester]
- EC50 [1, 6]: 4.1 µM
- EC50 [2, 7]: 0.7 µM

Molecule: CCC(N)C(=O)O[C@@H]1[C@]2(CC)C=CCN3CC[C@@]4(c5cc([C@@]6(C(=O)OC)C[C@@H]7CN(CCc8c6[nH]c6ccccc86)C[C@](O)(CC)C7)c(OC)cc5N(C)[C@H]4[C@@]1(O)C(=O)OC)[C@@H]32 (stereo partly shown) [4-O-Abu-(dAc)-VIN, I isoform]
- EC50 [1, 6]: 2.3 µM
- EC50 [2, 7]: 3.9 µM

Molecule: CCC1(O)CC2CN(CCc3c([nH]c4ccccc34)C(C(=O)OC)(c3cc4c(cc3OC)N(C)C3C(O)(C(=O)OC)C(OC(=O)C(C)NC)C5(CC)C=CCN6CCC43C65)C2)C1 (stereo not shown) [4-O-[N-Me-dA]-dAc-VIN]
- EC50 [1, 6]: 1.7 µM
- EC50 [2, 7]: 1 µM

Molecule: CC[C@]1(O)C[C@@H]2CN(CCc3c([nH]c4ccccc34)[C@@](C(=O)OC)(c3cc4c(cc3OC)N(C)[C@H]3[C@@](O)(C(=O)OC)[C@H](OC(=O)CN)[C@]5(CC)C=CCN6CC[C@]43[C@@H]65)C2)C1 [4-O-glycine-(dAc)-VIN]
- EC50 [1, 4]: 1.8 µM
- EC50 [2, 5]: 0.3 µM

Molecule: CC[C@]1(O)C[C@H]2CN(CCc3c([nH]c4ccccc34)[C@@](C(=O)OC)(c3cc4c(cc3OC)N(C)[C@H]3[C@@](O)(C(=O)OC)[C@H](OC(=O)[C@@H](N)CC(C)C)[C@]5(CC)C=CCN6CC[C@]43[C@@H]65)C2)C1 [4-O-leucyl-(dAc)-VIN]
- EC50 [1, 6]: 4.5 µM
- EC50 [2, 7]: 4.5 µM

Molecule: CCC1(O)CC2CN(CCc3c([nH]c4ccccc34)C(C(=O)OC)(c3cc4c(cc3OC)N(C)C3C(O)(C(=O)OC)C(OC(=O)C5CCCCN5)C5(CC)C=CCN6CCC43C65)C2)C1 (stereo not shown) [4-O-pipecolyl-dAc-VIN]
- EC50 [1, 6]: 0.7 µM
- EC50 [2, 7]: 0.7 µM

Molecule: CC[C@]1(O)C[C@H]2CN(CCc3c([nH]c4ccccc34)[C@@](C(=O)OC)(c3cc4c(cc3OC)N(C)[C@H]3[C@@](O)(C(=O)OC)[C@H](OC(=O)CNC)[C@]5(CC)C=CCN6CC[C@]43[C@@H]65)C2)C1 [4-O-sarcosyl-(dAc)-VIN]
- EC50 [1, 4]: 1.8 µM
- EC50 [2, 5]: 1.3 µM

Molecule: CCC1(O)CC2CN(CCc3c([nH]c4ccccc34)C(C(=O)OC)(c3cc4c(cc3OC)N(C)C3C(O)(C(=O)OC)C(OC(=O)CO)C5(CC)C=CCN6CCC43C65)C2)C1 (stereo not shown) [4-hydroxyacetyl-VIN]
- EC50 [1, 6]: 3.3 µM
- EC50 [2, 7]: 1.3 µM

Molecule: CCC1(O)CC2CN(CCc3c([nH]c4ccccc34)C(C(=O)OC)(c3cc4c(cc3OC)N(C)C3C(O)(C(=O)OC)C(OC(=O)C5CC(O)CN5)C5(CC)C=CCN6CCC43C65)C2)C1 [(4-O-4-trans-L-Hyp)-dAc-VIN]
- EC50 [1, 4]: 1.1 µM
- EC50 [2, 5]: 0.6 µM

Molecule: CCC1(O)CC2CN(CCc3c([nH]c4ccccc34)C(C(=O)OC)(c3cc4c(cc3OC)N(C)C3C(O)(C(=O)OC)C(OC(=O)C(C)N)C5(CC)C=CCN6CCC43C65)C2)C1 (stereo not shown) [(4-O-Ala)-(dAc)-VIN]
- EC50 [1, 6]: 4.2 µM
- EC50 [2, 7]: 0.6 µM

Molecule: CCC1(O)CC2CN(CCc3c([nH]c4ccccc34)C(C(=O)OC)(c3cc4c(cc3OC)N(C)C3C(O)(C(=O)OC)C(OC(=O)C(N)Cc5ccccc5)C5(CC)C=CCN6CCC43C65)C2)C1 (stereo not shown) [(4-O-Phe)-(dAc)-VIN]
- EC50 [1, 6]: 2.2 µM
- EC50 [2, 7]: 3.8 µM

Molecule: CC[C@]1(O)C[C@@H]2CN(CCc3c([nH]c4ccccc34)[C@@](C(=O)OC)(c3cc4c(cc3OC)N(C)[C@H]3[C@@](O)(C(=O)OC)[C@H](OC(C)=O)[C@]5(CC)C=CCN6CC[C@]43[C@@H]65)C2)C1 [VINBLASTINE, vinblastine, reference compound]
- EC50 ([1]; Homo sapiens, COLO 320DM, 72 HRS, read-out: Colo320DM EC 50): 0.5 µM
- EC50 ([2]; Homo sapiens, 72 HRS, read-out: LNCaP Cell Kill in 72 HRS. {48 HRS} EC 50): 0.5 µM
